Assay results as given in PMC9251361, “Effects of LPS Composition in Escherichia coli on Antibacterial Activity and Bacterial Uptake of Antisense Peptide-PNA Conjugates” (Frontiers in Microbiology, 2022).
Values after ≈ are worked out from the molar mass of the structure shown. Like-named read-outs stand apart in the source and are kept apart here. Positions of bridges follow the written chain, without caps; N, C: chain ends. Non-standard residues stand in square brackets, D forms with d. Residues, ends and D or L forms follow the SMILES beside them. *: point of attachment. X1 = CC[C@H](C)CCCCC(=O)*; Dab = NCC[C@H](N)C(=O)O

How the values were obtained:
[1] = tested on: E. coli R1 core type (F470); format: cell-based, Escherichia coli; conditions: Table 2, strain R1* (48 h), MHB, 37°C
Description: (§1) All strains used in this study are listed in Supplementary Table S1. E. coli strains WD101 and WD101ΔeptAΔarnD (WD101ΔΔ) were kindly provided by Professor M. Stephen Trent (University of Georgia, USA). E. coli strains DB wild type, DB L5, and DB L9 were kindly provided by Dr. Douglas Browning (University of Birmingham, UK). Single deletion strains for envelope mutants were obtained from the Keio-collection (Baba et al., [2006]). All strains were grown in non-cation adjusted Muller Hinton broth (MHB) (Sigma, Cat. No. 70192). BPP-PNA conjugates (Table 1) were obtained as described previously (Good et al., [2001]; Ghosal et al., [2013]; Hansen et al., [2016]).
Minimum inhibitory concentration (MIC) values were determined by broth microdilution according to standard protocols adapted to peptide-based antimicrobial compounds (Goltermann and Nielsen, [2020]). Briefly, 190 μl bacterial cell culture containing ≈10^5 cfu/ml was dispensed into a 96-well plate (Thermo Scientific, Nunc Cat. No. 260896, 96F straight w/lid) along with 10 μl PNA stock solution or antibiotic. […] The MIC was determined as the lowest concentration, which inhibited visible growth (OD < 0.1) in the wells. […] Experiments were performed in triplicates as a minimum.

[2] = tested on: E. coli R4 core type (F2513); format: cell-based, Escherichia coli; conditions: Table 2; strain R4; MHB, 37°C, 18 h
Description: as §1
(§2) Minimum inhibitory concentration (MIC) values were determined by broth microdilution according to standard protocols adapted to peptide-based antimicrobial compounds (Goltermann and Nielsen, [2020]). Briefly, 190 μl bacterial cell culture containing ≈10^5 cfu/ml was dispensed into a 96-well plate (Thermo Scientific, Nunc Cat. No. 260896, 96F straight w/lid) along with 10 μl PNA stock solution or antibiotic. The plate was incubated in a Tecan Genios plate reader at 37°C for 18 h, and OD was measured every 20 min at 595 nm. The MIC was determined as the lowest concentration, which inhibited visible growth (OD < 0.1) in the wells. […] Experiments were performed in triplicates as a minimum.

[3] = tested on: E. coli R3 core type (F653); format: cell-based, Escherichia coli; conditions: Table 2; strain R3; MHB, 37°C, 18 h
Description: as §1, §2

[4] = tested on: E. coli 122 ΔrfaF (ATCC25922 ΔrfaF); format: cell-based, Escherichia coli; conditions: Table 2; strain 122 ΔrfaF; MHB, 37°C, 18 h
Description: as §1, §2

[5] = tested on: E. coli ATCC25922; format: cell-based, Escherichia coli; conditions: strain ATCC25922, MHB, 37°C, 18 h; for MIC values: Table 3
Description: as §1, §2

[6] = tested on: E. coli 123 ΔrfaG (ATCC25922 ΔrfaG); format: cell-based, Escherichia coli; conditions: Table 2; strain 123 ΔrfaG; MHB, 37°C, 18 h
Description: as §1, §2

[7] = tested on: E. coli WD101 (polymyxin-resistant pmrA^C); format: cell-based, Escherichia coli; conditions: Table 2; strain WD101; MHB, 37°C, 18 h
Description: as §1, §2

[8] = tested on: E. coli R2 core type (F632); format: cell-based, Escherichia coli; conditions: Table 2; strain R2; MHB, 37°C, 18 h
Description: as §1, §2

[9] = tested on: E. coli WD101ΔΔ; format: cell-based, Escherichia coli; conditions: Table 2; strain WD101ΔΔ; MHB, 37°C, 18 h
Description: as §1, §2

[10] = tested on: E. coli K12 MG1655; test: microbe, parasite or virus in culture; format: cell-based, Escherichia coli; conditions: 37°C, 18 h; for MIC values: Table 3, strain MG1655
Description: as §1, §2

[11] = tested on: E. coli 121 ΔrfaE (ATCC25922 ΔrfaE); test: MIC broth microdilution; format: cell-based, Escherichia coli; conditions: Table 2; strain 121 ΔrfaE; MHB, 37°C, 18 h
Description: as §1, §2

[12] = tested on: E. coli ATCC25922 ΔrfaC (120 ΔrfaC); test: MIC broth microdilution; format: cell-based, Escherichia coli; conditions: for MIC values: Table 3, strain ATCC25922 ΔrfaC
Description: as §1, §2

[13] = tested on: E. coli AS19; test: MIC broth microdilution; format: cell-based, Escherichia coli; conditions: Table 2; strain AS19; MHB, 37°C, 18 h
Description: as §1, §2

[14] = tested on: E. coli inner core mutants (ΔrfaC, ΔrfaE, ΔrfaF, and ΔrfaG); test: MIC broth microdilution, inner core mutants as a group; format: cell-based, Escherichia coli; conditions: all the inner core mutants as well as AS19
Description: as §2
Four inner core mutants (ΔrfaC, ΔrfaE, ΔrfaF, and ΔrfaG) with increasingly shortened LPS core (Figure 2A) were investigated. The deletions span the three heptosyl and glycosyltransferases rfaC, rfaF, and rfaG responsible for attaching heptose and glucose, respectively, to the growing LPS core, and rfaE required for the synthesis of the heptose precursor needed for LPS synthesis (Figure 2A). […] Furthermore, all strains were characterized with respect to hydrophobicity and accessible cell surface charge (Figure 2B, vide infra). […] It is known that the peptide portion of the conjugates can have a membrane disruptive effect at high concentrations (Eriksson et al., [2002]). […]

[15] = tested on: E. coli MG1655 ΔsbmA; test: MIC broth microdilution; format: cell-based, Escherichia coli; conditions: Table 3; strain MG1655 ΔsbmA; MHB, 37°C, 18 h
Description: as §1, §2

[16] = HPLC analysis of BPP-PNA relative hydrophobicity; format: physicochemical; conditions: chromatographic measure of hydrophobicity; RP18 column (150 ×3.9 mm DeltaPak, 5 μm); 0 to 40% buffer B (95% acetonitrile, 0.1% TFA) in 30 min; conjugates dissolved in water and mixed; recorded at 260 nm
Description: Hydrophobicity of the BPP-PNA conjugates was measured using reversed phase high-performance liquid chromatography (HPLC) on an RP18 column (150 ×3.9 mm DeltaPak, 5 μm; Waters Corporation, Milford, MA, USA). Briefly, all the BPP-PNA conjugates were dissolved in water and mixed. The mixture of BPP-PNA conjugates has been run on HPLC and recorded at 260 nm. The HPLC buffers used in this study are buffer A composed of 5% acetonitrile, 0.1% trifluoroacetic acid (TFA), and 95% H2O, and buffer B composed of 95% acetonitrile, 0.1% TFA, and 5% H2O; the gradient starts from 100% of buffer A, 0% of buffer B, and ends with 60% of buffer A, 40% of buffer B in 30 min. Hydrophobicity of the compound was directly correlated to the HPLC retention time of each conjugate.

[17] = Table 2, strain K12 MG1655, MHB

Compound: CC[C@H](C)CCCCC(=O)N[C@@H](CCN)C(=O)N[C@H](C(=O)N[C@@H](CCN)C(=O)N[C@H]1CCNC(=O)[C@H]([C@@H](C)O)NC(=O)[C@H](CCN)NC(=O)[C@H](CCN)NC(=O)[C@H](CC(C)C)NC(=O)[C@@H](CC(C)C)NC(=O)[C@H](CCN)NC1=O)[C@@H](C)O [Colistin] (X1-[Dab]T[Dab][Dab][Dab][dL]L[Dab][Dab]T; lactam 4-C (inferred); N-terminus assumed)
- Minimum inhibitory concentration, Colistin [1]: 0.016 µg/mL (≈ 0.0137 µM)
- Minimum inhibitory concentration, Colistin [2]: 0.03 µg/mL (≈ 0.0257 µM)
- Minimum inhibitory concentration, Colistin [3]: 0.06 µg/mL (≈ 0.0513 µM)
- Minimum inhibitory concentration, Colistin [4]: 0.016 µg/mL (≈ 0.0137 µM)
- Minimum inhibitory concentration, Colistin ([5]; Table 2): 0.06 µg/mL (≈ 0.0513 µM)
- Minimum inhibitory concentration, Colistin [6]: ≤ 0.016 µg/mL
- Minimum inhibitory concentration, Colistin [7]: 4 µg/mL (≈ 3.42 µM)
- Minimum inhibitory concentration, Colistin [8]: 0.03 µg/mL (≈ 0.0257 µM)
- Minimum inhibitory concentration, Colistin [9]: ≤ 0.016 µg/mL
- Minimum inhibitory concentration, Colistin [10, 17]: 0.03 µg/mL (≈ 0.0257 µM)

Compound: CCCCCCCCCCCCOS(=O)(=O)[O-].[Na+] [SDS, sodium dodecyl sulfate]
- Minimum inhibitory concentration, SDS [11]: ≤ 0.03%
- Minimum inhibitory concentration, SDS ([12]; Table 2, strain 120 ΔrfaC, MHB, 37°C, 18 h): ≤ 0.03%
- Minimum inhibitory concentration, SDS [13]: ≤ 0.03%
- MIC, SDS [14]: < 0.03%
- Minimum inhibitory concentration, SDS [2]: ≤ 0.06%
- Minimum inhibitory concentration, SDS [3]: >0.5%
- Minimum inhibitory concentration, SDS [4]: ≤ 0.03%
- Minimum inhibitory concentration, SDS ([5]; Table 2): 0.12%
- Minimum inhibitory concentration, SDS [6]: ≤ 0.03%
- Minimum inhibitory concentration, SDS [7]: 0.12%
- Minimum inhibitory concentration, SDS [8]: >0.5%
- Minimum inhibitory concentration, SDS [9]: 0.12%
- Minimum inhibitory concentration, SDS [10, 17]: 0.12%

Compound: -Cys- RAGLQFPVGRVHRLLRK-NH2 (BF2A) [PNA4030, anti acpP PNA conjugated to buforin 2a (BF2A) via Cys]
- MIC values ([12]; MHB, 37°C, 18 h): <0.25 µM
- MIC values [15]: 8 to 16 µM
- MIC values [5]: 0.5 µM
- MIC values ([10]; MHB): 1 µM

Compound: -Cys-GKPRPYSPRPTSHPRPIRV-NH2 (Drosocin) [PNA4128, anti acpP PNA conjugated to drosocin via Cys]
- MIC values ([12]; MHB, 37°C, 18 h, listed as 4128): <0.06 µM
- fold lower MIC in the ΔrfaC-mutant than the ATCC25922 control ([12]; ΔrfaC-mutant vs ATCC25922): more than 16 fold
- MIC values [15]: 4 to 8 µM
- MIC values ([5]; listed as 4128): 1 µM
- MIC values ([10]; MHB): 0.5 to 1 µM

Compound: -Cys-GKPRPYSPRPTSHPRPIRV-NH2 (Drosocin) [PNA4242, mm for PNA4128]
- MIC values ([12]; MHB, 37°C, 18 h, listed as 4242): <1 µM
- MIC values ([5]; listed as 4242): >8 µM

Compound: -Cys-GKPRPYSPRPTSHPRPIRV-R-X-R-NH2 [PNA4448, anti acpP PNA conjugated to drosocin extended by R-X-R]
- MIC values ([12]; MHB, 37°C, 18 h): <0.12 µM
- MIC values [15]: 2 µM
- MIC values [5]: 2 µM
- MIC values ([10]; MHB): 1 to 2 µM

Compound: -Cys-RAGLQFPVGRVHRLLRK-NH2 (BF2A) [PNA4243, mm for PNA4030]
- MIC values ([12]; MHB, 37°C, 18 h): <2 µM
- MIC values [5]: >8 µM

Compound: -Cys-RAGLQFPVGRVHRLLRK-R-X-R-NH2 (BF2A) [PNA4449, anti acpP PNA conjugated to BF2A extended by R-X-R]
- MIC values ([12]; MHB, 37°C, 18 h): <0.25 µM
- MIC values [15]: >4 µM
- MIC values [5]: 1 µM
- MIC values ([10]; MHB): <0.5 µM

Compound: -Cys-VDKPPYLPRPRPPRRIYNR-NH2 (oncocin) [PNA4124, anti acpP PNA conjugated to oncocin via Cys]
- MIC values ([12]; MHB, 37°C, 18 h, listed as 4124): 0.25 µM
- MIC values [15]: >8 µM
- MIC values ([5]; listed as 4124): >2 µM
- MIC values ([10]; MHB): 8 µM

Compound: -Cys-VDKPPYLPRPRPPRRIYNR-NH2 (oncocin) [PNA4700, mm for PNA4124]
- MIC values ([12]; MHB, 37°C, 18 h, listed as 4700): 4 µM
- MIC values ([5]; listed as 4700): >8 µM

Compound: H-CTCATACTCT-NH2 [PNA2301, unconjugated anti acpP PNA, H-…-NH2]
- HPLC retention time (RT) [16]: 14 min
- Minimum inhibitory concentration [13]: 2 µM
- Minimum inhibitory concentration [2]: >16 µM
- Minimum inhibitory concentration [3]: >16 µM
- Minimum inhibitory concentration [4]: >4 µM
- Minimum inhibitory concentration ([5]; Table 2): >16 µM
- Minimum inhibitory concentration [6]: >16 µM
- Minimum inhibitory concentration ([10]; Table 2, strain K12 MG1655, non-cation adjusted MHB, ≈10^5 cfu/ml, triplicates minimum): >32 µM
